Reference: patent US5302586A, “Phosphonomethyl-imidazo[1,2-a]pyrimidine-2-carboxylic acid compounds for treatment of neurotoxic injury” (G. D. Searle & Co., priority 1992, dated 1994)

What was measured:
[1] = system: NMDA receptor site (NMDA-specific L-[^3 H]glutamate recognition site); assay: NMDA-Selective Glutamate Binding Assay (L-[^3 H]glutamate, synaptic plasma membranes); design: species or system rat
Protocol: Synaptic plasma membranes (SPM) were prepared as previously described [Monohan, J. B. and Michel, J., "Identification and Characterization of an N-methyl-D-aspartate-specific L[^3 H]glutamate Recognition Site in Synaptic Plasma Membranes, J. Neurochem., 48, 1699-1708 (1987)]. The SPM were stored at a concentration of 10-15 mg/ml in 0.32M sucrose, 0.5 mM EDTA, 1 mM MgSO4, 5 mM Tris/SO4, pH 7.4, under liquid nitrogen. The identity and purity of the subcellular fractions were confirmed by both electron microscopy and marker enzymes. Protein concentrations were determined by using a modification of the method of Lowry [Ohnishi, S. T. and Barr, J. K., "A Simplified Method of Quantitating Proteins Using the Biuret and Phenol Reagents", Anal. Biochem., 86, 193-197 (1978)]. The SPM were treated identically for the [^3 H]AMPA (QUIS), [^3 H]kainate and sodium-dependent L-[^3 H]-glumatate binding assays. […] Beckman MP scintillation cocktail containing 7 mL/1 acetic acid was then added and the samples counted on a Beckman LS 5800 or 3801 liquid scintillation counter with automatic corrections for quenching and counting efficiency. […] Radioligand binding to the synaptic plasma membranes was analyzed using Scatchard and Hill transformations and the Ki values of the compounds determined using logit-log transformations. […]

[2] = molecular target: [^3 H]MK-801 binding, rat SPM (NMDA receptor); assay: [^3 H]MK-801 Binding assay (Triton X-100 treated rat synaptic plasma membranes); settings: 5.0 nM [^3 H]MK-801, L-glutamate 10.0 nM, 25° C., 30 min, pH 7.4
Protocol: Modulation of [^3 H]MK-801 binding was performed using Triton X-100 (0.04% v/v) treated rat SPM that had been extensively washed. Assay incubations were at 25° C. for 30 min. and contained 5.0 nM [^3 H]MK-801, L-glutamate (10.0 nM), and various concentrations of the tested compound of the invention in 50 mM Tris/acetate, pH 7.4. The assay was stopped by rapid filtration, using Brandel MB-48 Harvester, through Whatman GF/B filters treated with 0.05% polyethylenimine and the samples washed four times with 2.0 mL cold buffer. The radioactivity associated with the filter was determined by liquid scintillation spectrometry. Nonspecific binding was defined using 60 μM MK-801. IC50 were determined using a logit-log transformation of the binding data.

NMDA = settings: CPP binding to rat brain hippocampal tissue, Murphy et al 1987; cited from earlier work

For `O=C(O)c1cn2ccc(CP(=O)(O)O)nc2n1` [Example 2, 7-phosphonomethyl-imidazo[1,2-a]pyrimidine-2-carboxylic acid], the “[^3 H]GLU % inhibition” value ([1]; @ 10 μM) was 14%.
For `O=C(O)c1cn2c(CP(=O)(O)O)ccnc2n1` [Example 1, 5-Phosphonomethyl-imidazo[1,2-a]pyrimidine-2-carboxylic acid], the Ki [2] was 4.6 µM and the Ki ([1]; [^3 H]GLU, Triton X-100 treated SPM, 50 mM Tris/acetate pH 7.4, 0°-4° C., 10 min) was 8.8 µM.
In the case of `O=C(O)C1CN(CCCP(=O)(O)O)CCN1` (stereo not shown) [CPP, 3-(2-carboxypiperazin-4-yl)propyl-1-phosphonic acid], the “NMDA antagonist potency and selectivity” value (NMDA) is given as “potent and selective NMDA antagonist”.
